What was measured:
[1] = Gross toxicity and organ histology in LL/2 tumor-bearing mice; type: in vivo, B6D2F1 mice
Protocol: (§1) Five to ten days after inoculation with the tumor cells, treatment was initiated with either solvent alone for control groups, or solvent with BFA for the treated group. The mice were treated daily for one to two weeks either intraperitoneally (i.p.) or intravenously (i.v.). The mice (weighing approximately 25 g each) were observed daily for the absence or presence of a tumor, as well as for signs of gross toxicity such as weight loss, hair loss, lethargy, and/or dehydration. The body weight for each mouse was recorded daily until the end of treatment. At the termination of treatment, mice were euthanized, and their tumors removed and stored in formalin for sectioning and staining in future studies. In some experiments, organs such as the kidney, spleen, liver, and brain were also stored in formalin (10%) for future histological analysis of organ toxicity.
The toxicity and efficacy of brefeldin A (BFA, 11 mg/kg) in 10% ethanol (in saline) were determined in B6D2F1 mice. On Day 0, mice were inoculated on one flank with 1.25×10^5 LL/2 tumor cells in 50 μl liquid carrier. Five days after inoculation with the tumor cells, mice were randomized into control and treated groups. The mice received daily treatments (0.2 ml, i.p.) for two weeks with either 10% ethanol in phosphate-buffered saline (control) or 10% ethanol in phosphate-buffered saline with BFA (treated). Each mouse in the treated group received a total dose of 0.28 mg of BFA daily.
All mice were observed daily for signs of gross toxicity and the absence or presence of tumor growth. In addition, all mice were weighed daily. […] Efficacy was determined by delay in the appearance of the tumor in the experimental group relative to control.
(§2) The efficacy of brefeldin A (BFA, 12 mg/kg) in 10% ethanol (in saline) was evaluated in B6D2F1 mice with a higher tumor cell burden than used in Example 1. […]
All mice were observed daily for signs of gross toxicity and the absence or presence of tumor growth. […] Efficacy was determined by delay in the appearance of tumor in the experimental group relative to control.

RIF-1 tumors = test: In vivo efficacy in mice carrying RIF-1 (radiation induced fibrosarcoma-1) tumors; set-up: species or system C3H mice; conditions: Example 3
Protocol: (§3) For Examples 1-3, the pharmaceutical formulations were prepared just prior to use. Various amounts of brefeldin A (BFA) (mg of drug/kg animal's body weight) were weighed out, and solvent (varying amounts of ethanol in saline) was then added. The mixtures were either vortexed (mechanical mixing) or sonicated until the drug was either completely dissolved or only a very small amount appeared to settle in the bottom the test tube.
(§4) In vivo efficacy was determined using either inbred C3H or hybrid B6D2F1 mice carrying RIF-1 (radiation induced firbrosarcoma-1) or LL/2 (Lewis lung carcinoma) tumors, respectively. The tumor cells were kept in a CO2/O2 atmosphere at 37° C., and grown in monolayers. When confluent, cells were rinsed with ice-cold phosphate buffered ethylenediamine tetraacetic acid (EDTA), followed by trypsin/EDTA treatment for about 3 minutes at 37° C. The cells were then dispersed by the addition of medium with serum and spun down using a centrifuge, then washed once in phosphate-buffered saline (PBS) prior to suspending at the desired density (cells/ml) in sterile Hank's balanced salt solution (HBSS). The cells were then inoculated subcutaneously (s.c.) with either a 100 μl or 50 μl injection on one flank of each mouse to provide the desired number of cells (1.25×10^5, 2.5×10^5 or 5.0×10^5) per site.
Five to ten days after inoculation with the tumor cells, treatment was initiated with either solvent alone for control groups, or solvent with BFA for the treated group. The mice were treated daily for one to two weeks either intraperitoneally (i.p.) or intravenously (i.v.). […] The body weight for each mouse was recorded daily until the end of treatment. […]
The efficacy of a lower dose of BFA (8 mg/kg), in a lower concentration of ethanol (1.0%) in phosphate-buffered saline, relative to Examples 1 and 2 was determined. […]
(§5) All mice were observed daily for signs of gross toxicity and the absence or presence of tumor growth. […] Efficacy was determined by tumor growth delay as evidenced by the size and appearance of the tumor in the treated group relative to control.

[2] = test system: rat aortic ring explant cultures; test: Ex vivo rat aortic ring explant assay (microvessel outgrowth); type: cell-based, Sprague-Dawley rats; conditions: tested concentrations of 200 nM and above (200, 400, 1000 nM); Day 7; average of three trials
Protocol: The ex vivo influence of brefeldin A on angiogenesis was evaluated as follows. Male Sprague-Dawley rats weighing approximately 250 g were anesthetized and their thoracic aortas removed carefully to avoid damaging the vessel wall. Aortas were rinsed in serum-free endothelial cell basal medium, the surrounding adventitia removed and cleaned, and the vessels cut into two millimeter (mm) concentric rings. Each ring was embedded in freshly prepared rattail collagen. Following gelation for 30 minutes at 37° C., collagen gel cultures were transferred to 16 mm wells (4 well plate), each containing 0.5 ml of serum free (MCBD 131) medium. Brefeldin A was dissolved in DMSO and mixed with serum free medium at final concentrations of 40 nM 100 nM, 200 nM, 400 nM, and 1000 nM immediately prior to the addition of media to collagen-embedded rat aortic ring explant cultures. The final concentration of DMSO in treated and control cultures was 0.02%. Explant cultures were incubated at 35.5° C. in a 5% CO2 humidified atmosphere, and the media replaced every two days over the course of the 8-10 day study. Visual counts of microvessel outgrowths from replicate explant cultures were performed using bright field microscopy during microvessel peak growth (Day 7).
Data were expressed as percent inhibition of microvessel growth relative to vehicle-treated control cultures (FIG. 8). […]

[3] = test system: LL/2 (Lewis lung carcinoma) tumors; test: In vivo efficacy in mice carrying LL/2 (Lewis lung carcinoma) tumors; set-up: species or system B6D2F1 mice
Protocol: as §3, §4, §1
The toxicity and efficacy of brefeldin A (BFA, 11 mg/kg) in 10% ethanol (in saline) were determined in B6D2F1 mice. On Day 0, mice were inoculated on one flank with 1.25×10^5 LL/2 tumor cells in 50 μl liquid carrier. […]
All mice were observed daily for signs of gross toxicity and the absence or presence of tumor growth. […] Efficacy was determined by delay in the appearance of the tumor in the experimental group relative to control.
as §2

[4] = Gross toxicity in RIF-1 tumor-bearing mice; type: in vivo, C3H mice; conditions: Example 3; 8 mg/kg i.v. daily for eight days
Protocol: as §1
On Day 0, C3H mice were inoculated on one flank (s.c.) with 2.5×10^5 RIF-1 tumor cells in 50 μl liquid carrier. Ten days following tumor cell inoculation, mice were randomized into control and treated groups. […]
as §5

[5] = test system: Human umbilical vein endothelial cells (HUVECs); test: In vitro capillary tube formation assay on Matrigel; type: cell-based; conditions: tested concentrations of 4.0 nM and above (4.0, 40, 100, 400 nM); 18 hours
Protocol: The in vitro influence of brefeldin A on angiogenesis was evaluated. Human umbilical vein endothelial cells (HUVECs) were cultured in medium EBM-2 complete™ (BioWhittaker, Inc., Baltimore, Md.). Matrigel® (200 μl, synthetic basement membrane substrate) was pipetted gently to avoid air bubbles on the surface of a 48-well plate. Following application of Matrigel® substrate, the plate was placed in an incubator at 37° C. for 30 minutes to promote gelling. HUVECs were harvested from tissue culture flasks, counted, and diluted to 15×10^4/ml. The cell suspension (200 μl) was added to the Matrigel® substrate, such that the final concentration was 30,000 cells/well. Two wells/concentration were used. For evaluation of antiangiogenic activity, a 0.4 mM BFA stock (in dimethyl sulfoxide, DMSO) was diluted to a final concentration of 400, 100, 40, 4.0, and 0.4 nM before adding cells. The final DMSO concentration was 0.02%. […] To evaluate capillary tube formation, plates were viewed under phase contrast low magnification (10×), a photo reticule was used to define the area, and the capillary tube network was counted within the designated area. Only complete tubes that were inside the rectangle were counted.
Data were expressed as percent of complete capillary tube formation relative to untreated control cultures incubated under the same conditions (control=100%). […]

[6] = Example 2, 12 mg/kg i.p. daily for two weeks, 5.0×10^5 LL/2 cells

C[C@H]1CCC/C=C/[C@@H]2C[C@H](O)C[C@H]2[C@H](O)/C=C/C(=O)O1 [brefeldin A]
gross toxicities (weight loss, hair loss, lethargy, dehydration) ([1]; Example 1, 11 mg/kg i.p. daily for two weeks): not observed
toxicity-related effects in brain, kidney, liver, spleen ([1]; Example 1, 11 mg/kg i.p. daily for two weeks, H&E histology): no toxicity-related effects
gross toxicity (weight loss (FIG. 4), hair loss, lethargy) ([1]; Example 2, 12 mg/kg i.p. daily for two weeks): no gross toxicity
vessel density in tumor sections (qualitative) (RIF-1 tumors; 8 mg/kg i.v. daily for eight days): less vessel density
tumor size relative to control (FIG. 6) (RIF-1 tumors; 8 mg/kg i.v. daily for eight days in 1.0% ethanol, 2.5×10^5 RIF-1 cells): significantly smaller
tumor invasiveness on harvesting (RIF-1 tumors; 8 mg/kg i.v. daily for eight days, control tumors penetrated muscle): remained relatively localized and relatively easy to remove
inhibition of angiogenesis (microvessel growth relative to vehicle-treated control) [2]: more than 50%
presence of tumor (gross observation, FIG. 1) ([3]; Example 1, 11 mg/kg i.p. daily for two weeks in 10% ethanol, 1.25×10^5 LL/2 cells): no evidence of tumor was observed
tumor at inoculation site (skin sample histology, FIG. 2A) ([3]; Example 1, 11 mg/kg i.p. daily for two weeks, after final treatment): No evidence of tumor at the injection site
tumor growth delay (FIG. 3) [3, 6]: significant tumor growth delay
tumor size reduction relative to control group [3, 6]: at least 25%
gross toxicity (weight loss, hair loss, lethargy, dehydration) [4]: no gross toxicity was observed
inhibition of angiogenesis (complete capillary tube formation relative to untreated control) [5]: more than 50%
